The test system of one data set is activated Smo (SmoA1). In words: Gli-luciferase reporter activity in cells expressing activated Smo (SmoA1-LIGHT). It counts as cell-based, mouse. The source says:
FIG. 2 relates to a sensitive assay for Shh signaling in NIH-3T3 cells. (A) Purification of cholesterol- and palmitate-modified mouse Sonic hedgehog signaling domain ShhNp. Detergent-insoluble proteolipid complexes were isolated from 293 cells expressing full-length Shh (M. K. Cooper, J. A. Porter, K. E. Young, P. A. Beachy, Science 280, 1603 (1998)), and ShhNp was purified to apparent homogeneity by immunoaffinity chromatography. […] We therefore used the detergent insolubility of cholesterol-modified ShhN and affinity chromatography to purify the processed ShhN protein (ShhNp) from a human 293 cell line engineered to express the full length mouse Shh construct. Detergent-insoluble complexes (DIGs) were isolated as described by Brown and Rose (1992), with the following modifications. Cells from a 150 mm dish were lysed and collected in 2 mL of lysis solution (10 mM NaHPO4, pH 6.5, 150 mM NaCl, 0.5 mM PMSF, 1% Triton X-100, 2 μg/ml Pepstatin A, 10 μg/ml leupeptin, 5 μg/ml aprotinin, 2 μg/ml E64) at 4° C. […] Fold induction of the reporter (% of maximum is relative to equally dense Shh-LIGHT control culture) and cell densities (% of maximum Renilla luciferase activity) were measured at the end of the experiment. […]
A general note: In a reporter assay the amount or activity of a reporter protein is the signal.

The test system of data set [1] is P2A6 fibrosarcoma cells derived from Ptc−/− embryonic fibroblasts. The data set is described as follows: Subcutaneous P2A6 fibrosarcoma tumors in female nude mice. In kind it is in vivo, mouse. The following applies: for Ki-67 proliferation rate: tumors after four days of treatment, blinded pathologist. The protocol:
Female nude mice were injected subcutaneously with 5 million P2A6 fibrosarcoma cells derived from Ptc−/− embryonic fibroblasts. Three weeks after injection, each mouse had developed a discrete subcutaneous tumor. Each tumor was measured and treatments were initiated on the same day. […] The mice were killed, and tumors were measured and dissected out for histopathologic analysis. Tumor volumes were calculated as the product of length x width. The samples were paraformaldehyde-fixed and paraffin-embedded, and slides were cut for hematoxylin and eosin staining and for immunohistochemistry with polyclonal antibodies against the proliferation marker Ki-67 (Novacastra NCL-Ki67p; assay performed according to manufacturer's directions).

The next data set deals with Sonic hedgehog signaling. In words: Clonal NIH-3T3 line with stably integrated Shh-responsive luciferase reporter (Shh-LIGHT/Shh-LIGHT2), inhibition of Sonic hedgehog induction. In kind it is cell-based, mouse. The following applies: for IC50: concentration for 50% inhibition of Sonic hedgehog induction, Table II; for effect of N-alkyl modification on ability to block Shh signaling / effect of addition on inhibitory activity: SAR statement, relative to cyclopamine; for improvement of inhibitory activity by oxidation of the hydroxyl group to a ketone: versus the corresponding 3-hydroxyl compound (18, 20, 22, 33, 40, 50). The source says: FIG. 2 relates to a sensitive assay for Shh signaling in NIH-3T3 cells. (A) Purification of cholesterol- and palmitate-modified mouse Sonic hedgehog signaling domain ShhNp. Detergent-insoluble proteolipid complexes were isolated from 293 cells expressing full-length Shh (M. K. Cooper, J. A. Porter, K. E. Young, P. A. Beachy, Science 280, 1603 (1998)), and ShhNp was purified to apparent homogeneity by immunoaffinity chromatography. […] We therefore used the detergent insolubility of cholesterol-modified ShhN and affinity chromatography to purify the processed ShhN protein (ShhNp) from a human 293 cell line engineered to express the full length mouse Shh construct. Detergent-insoluble complexes (DIGs) were isolated as described by Brown and Rose (1992), with the following modifications. Cells from a 150 mm dish were lysed and collected in 2 mL of lysis solution (10 mM NaHPO4, pH 6.5, 150 mM NaCl, 0.5 mM PMSF, 1% Triton X-100, 2 μg/ml Pepstatin A, 10 μg/ml leupeptin, 5 μg/ml aprotinin, 2 μg/ml E64) at 4° C. […] Low-density, flocculent material was collected (from original position of 18.125% step), diluted 5-fold in 10 mM NaHPO4, pH 6.5, 150 mM NaCl and harvested by centrifugation at 20,000×g for 15 min (all at 4° C.). […] Mass standards migrated as indicated. […] NIH-3T3 cells cotransfected with Gli-luc reporter and TK promoter-driven Renilla luciferase control were treated with the indicated concentrations of ShhNp for 2 days. Confluent cultures of NIH-3T3 cells were plated at 1:6 dilution to 24 or 96-well plates. On the following day, the cells were transfected with renilla luciferase (pRL-TK or pRL-SV40; Clontech) or β-galactosidase transfection control (10% w/w DNA), Gli-Luc reporter (40%) and the constructs indicated (50%) using Fugene 6 (Roche) transfection reagent (250 ng (24 well plate) or 100 ng (96 well plate) DNA/well, 3:1 ratio (v/w) of reagent to DNA). […] Firefly and Renilla luciferase and β-galactosidase activities were assayed from the cell lysates by luminometry using dual luciferase (Promega) and Galacto-Light (Tropix) kits, respectively. Luciferase activities are normalized relative to control; a representative experiment is shown. […] Error bars indicate one standard deviation. […] Cultures of Shh-LIGHT (open boxes) or SmoA1-LIGHT (filled diamonds) cells were plated to 96-well plates in a series of twofold dilutions. The NIH-3T3 cell clone Shh-LIGHT and Shh-LIGHT2 stably incorporating the Gli-luc reporter and TK-renilla vectors were established by cotransfection with a vector encoding G418 resistance (pSV-Neo), followed by selection with G418 and cell cloning. Subsequently, a clonal subline of Shh-LIGHT expressing activated Smo (SmoA1-LIGHT) was established using an expression vector that allows hygromycin selection (pcDNA3.1+ hygro; Invitrogen). […] The Shh-LIGHT cells were treated with 4 nM ShhNp, and Gli-luciferase reporter activity was assayed after 24 h. Fold induction of the reporter (% of maximum is relative to equally dense Shh-LIGHT control culture) and cell densities (% of maximum Renilla luciferase activity) were measured at the end of the experiment. Error bars indicate one standard deviation (quadruplicate wells).
(§1) Relative reporter activity is normalized to maximum. […] Error bars in A and B indicate one standard deviation.

The subject of data set [2] is Shh pathway activity in Ptc1−/− cells.
From the text: Since β-galactosidase is expressed from the Ptc1 locus, its expression reflects the activity of the Shh pathway. A representative experiment is shown. […] Cultures of NIH-3T3 cells were transfected (in triplicate) with Gli-luciferase reporter, TK-Renilla luciferase control vector and Smo or SmoA1 expression vectors. Smo DNA was used at 50% w/w, and SmoA1 at 50%, 5%, and 0.5% w/w. […] Error bars indicate one standard deviation. The leftmost four bars, shown for comparison, are as in FIG. 2C. […] NIH-3T3 cells were transfected with Gli-luc reporter, TK-Renilla, Ptc1CTD and SmoA1 expression vectors (Ptc to Smo DNA ratio=9). […] A representative experiment is shown. […] NIH-3T3 cells were cotransfected with Gli-luc reporter, β-galactosidase transfection control, and a control vector or an expression vector encoding the indicated Smo-Renilla luciferase fusion protein. In the representative experiment shown, Shh pathway activity and Smo protein levels were measured as firefly and Renilla luciferase activities relative to β-galactosidase, respectively.
as §1
Mice lacking function of Ptc1 display widespread activation of targets of Shh signaling, including of the Ptc1 gene itself (L. V. Goodrich, L. Milenkovic, K. M. Higgins, M. P. Scott, Science 277, 1109 (1997)). As β-galactosidase is expressed under the control of the Ptc1 promoter in these cells, β-galactosidase expression can be used to assay the state of Shh pathway activity (FIG. 3A).

The subject of the next data set is p2PTC−/− cells. The following applies: even at the highest doses used, 2 d.
From the text: as §1

A further data set concerns Shh pathway. The data set is described as follows: Gli-luciferase reporter assay for Shh signaling in transiently transfected NIH-3T3 cells. In kind it is cell-based, mouse. To be noted: ShhNp-treated NIH-3T3 cells (FIG. 2C: ShhNp 4 nM, cyclopamine 5 μM, 2 d).
The mark [3] stands for this setting: nude mice, once daily intraperitoneal, four days, one mouse per treatment.

A value given as a limit tells only on which side of the number the result lay.

In the case of “3-keto, N-aminoethyl aminocaproyl dihydrocinnamoyl cyclopamine [KAAD cyclopamine]”, the “blocking of pathway activation by tumor-derived / constitutively activated Smo” value in the data set on activated Smo (SmoA1) is given as “can block”. Also, the “concentration suppressing SmoA1-induced reporter activity relative to that required for suppression of ShhNp signaling” value in the data set on activated Smo (SmoA1) (higher, FIG. 4A) is “approximately 10 fold”. In addition, in data set [1] (compared with the tomatidine-treated control, FIG. 7), the “differentiation status of tumors” value was “greater degree of differentiation”. Moreover, the “decrease of tumor size” value in data set [1] (setting [3]) is 19%. In addition, in data set [1], the Ki-67 proliferation rate was found to be 12%. In the data set with Sonic hedgehog signaling, the “potency in suppression of ShhNp-induced pathway activity relative to cyclopamine” value is given as 10-20 fold. For the same compound, the “blocking/suppression of pathway activity in cells lacking Ptc1 function” value in data set [2] was “can block”. Also, the “potency relative to cyclopamine in p2PTC−/− cells” value in data set [2] (FIG. 4B, 2 d) is “higher potency”. The “minimum normalized β-galactosidase activity” value in data set [2] (p2PTC−/− cells, 2 d, normalized to cell mass, set to 0) is given as 191. For the same compound, the “Maximum normalized β-galactosidase activity” value in data set [2] (p2PTC−/− cells, 2 d, normalized to cell mass, set to 1) is listed as 1103. Further, the “Significant toxicity (microscopically visible cell death, or decrease in Cell Titer reading)” value in the data set on p2PTC−/− cells is on record as “not observed”.
What is called IC50 is the midpoint of a concentration-inhibition curve. A high value points to a need for much substance. `CC1=C2C[C@H]3[C@@H](CC=C4C[C@@H](O)CC[C@@]43C)[C@@H]2CC[C@]12O[C@@H]1C[C@H](C)CN(CCNC(=O)CCCCCNC(=O)CCCCC3SC[C@@H]4NC(=O)N[C@H]34)[C@H]1[C@H]2C` (some centres unmarked) [Compound 40, N—(N′—(N″-Biotinoyl aminocaproyl)aminoethyl)cyclopamine]: the IC50 with Sonic hedgehog signaling (Mus musculus, NIH3T3) was more than 100 nM. Besides, in the data set on Sonic hedgehog signaling, the “effect of N-alkyl modification on ability to block Shh signaling” value (from here on “effect of N-alkyl modification”) was “do not significantly diminish”.
For the compound `CC1=C2C[C@H]3[C@@H](CCC4=CC(=O)CC[C@@]43C)[C@@H]2CC[C@]12O[C@@H]1C[C@H](C)CN(CCNC(=O)CCCCCNC(=O)CCCCC3SC[C@@H]4NC(=O)N[C@H]34)[C@H]1[C@H]2C` (some centres unmarked) [Compound 41, 3-Enone, N—(N′—(N″-Biotinoylaminocaproyl)aminoethyl)cyclopamine], in the data set with Sonic hedgehog signaling, the “effect of enone formation (C5-C6 olefin migrated to C4-C5) on potency” value was “does not appear to affect compound potency” and the “improvement of inhibitory activity by oxidation of the hydroxyl group to a ketone” value is recorded as “approximately two-fold”. Moreover, the IC50 in the data set with Sonic hedgehog signaling (Mus musculus, NIH3T3) is more than 100 nM.
In the case of `CCC(=O)NCCCCCC(=O)NCCN1C[C@@H](C)C[C@H]2O[C@]3(CC[C@@H]4C(=C3C)C[C@H]3[C@H]4CC=C4C[C@@H](O)CC[C@@]43C)[C@H](C)[C@@H]21` [Compound 42, N—(N′—(N″-Propionyl aminocaproyl)aminoethyl)cyclopamine], in the data set on Sonic hedgehog signaling (Mus musculus, NIH3T3), the IC50 was more than 100 nM.
Turning to `CC1=CC(C)=[N+]2C1=Cc1ccc(CCC(=O)NCCCCCC(=O)NCCN3C[C@@H](C)C[C@H]4O[C@]5(CC[C@@H]6C(=C5C)C[C@H]5[C@H]6CC=C6C[C@@H](O)CC[C@@]65C)[C@H](C)[C@@H]43)n1[B-]2(F)F` [Compound 43, N—(N′—(N″-BODIPY FL aminocaproyl)aminoethyl)cyclopamine], in the data set with Sonic hedgehog signaling, the “effect of N-alkyl modification” value is on record as “do not significantly diminish”, the “effect of addition on inhibitory activity” value was “accentuate inhibitory activity” and the IC50 was more than 100 nM.
As to `CC(=O)CCC(=O)N[C@@H](Cc1ccc(C(=O)c2ccccc2)cc1)C(=O)NCCN1C[C@@H](C)C[C@H]2O[C@]3(CC[C@@H]4C(=C3C)CC3[C@H]4CC=C4C[C@@H](O)CC[C@@]43C)C(C)[C@@H]21` (some centres unmarked) [Compound 50, N—(N′—(N″-Levulinoyl(4-benzoylphenylalaminoyl))aminoethyl)cyclopamine], in the data set with Sonic hedgehog signaling (Mus musculus, NIH3T3), the IC50 is more than 1000 nM. In the data set on Sonic hedgehog signaling, the “effect of N-alkyl modification” value was “significantly abrogate biological activity”.
For the compound `CC(=O)CCC(=O)N[C@@H](Cc1ccc(C(=O)c2ccccc2)cc1)C(=O)NCCN1C[C@@H](C)C[C@H]2O[C@]3(CC[C@@H]4C(=C3C)CC3[C@H]4CC=C4CC(=O)CC[C@@]43C)[C@H](C)[C@@H]21` (some centres unmarked) [Compound 51, 3-Keto N—(N′—(N″-Levulinoyl(4-benzoylphenylalaminoyl))aminoethyl) cyclopamine], the IC50 in the data set on Sonic hedgehog signaling (Mus musculus, NIH3T3) was more than 1000 nM. The “improvement of inhibitory activity by oxidation of the hydroxyl group to a ketone” value with Sonic hedgehog signaling was “approximately two-fold”.
Turning to `CC1=C2C[C@H]3[C@@H](CC=C4C[C@@H](O)CC[C@@]43C)[C@@H]2CC[C@]12O[C@@H]1C[C@H](C)CN(CCNC(=O)C(CCCCNC(=O)CCCCCNC(=O)CCCC[C@@H]3SC[C@@H]4NC(=O)N[C@@H]43)NC(=O)c3ccc(C(=O)c4ccccc4)cc3)[C@H]1[C@H]2C` (some centres unmarked) [Compound 58, N—(N′—(N″,N′″-(4-Benzoylbenzoyl)(N″″-biotinoylaminocaproyl)lysine)aminoethyl)cyclopamine], the IC50 in the data set with Sonic hedgehog signaling (Mus musculus, NIH3T3) is more than 10000 nM.
As to `C[C@H]1CC[C@]2(NC1)O[C@H]1C[C@H]3[C@@H]4CC[C@H]5C[C@@H](O)CC[C@]5(C)[C@H]4CC[C@]3(C)[C@H]1[C@@H]2C` [tomatidine], the “tumor growth over the treatment period” value in data set [1] (setting [3]) turned out to be 17%. Also, in data set [1], the Ki-67 proliferation rate is on record as 30%.
The compound “N—(N′—(N″,N′″-(4-Benzoylbenzoyl) (N″″-digoxigenin 3-O-methylcarbonyl aminocaproyl)lysine)aminoethyl)cyclopamine [Compound 57]” registered an IC50 against Sonic hedgehog signaling of more than 10000 nM.
As to “N—(N′—(N″-Azidoiodophenylpropionyl aminocaproyl)aminoethyl)cyclopamine [Compound 39]”, in the data set on Sonic hedgehog signaling, the “effect of N-alkyl modification” value is “do not significantly diminish”, the “effect of addition on inhibitory activity” value is “accentuate inhibitory activity” and the IC50 was more than 100 nM.
Take forskolin: in the data set with Shh pathway, the “induction of reporter by ShhNp” value is reported as “prevented induction”.

(Values after patent US9440988B2, “Regulators of the hedgehog pathway, compositions and uses related thereto” (John Hopkins University School of Medicine, priority 1008, dated 2016).)
